Assay results taken from US20170252433A1, “PSMA-RELATED THERAPIES” (Memorial Sloan Kettering Cancer Center, priority 2014, published 2017).

Tested on: PSMA-expressing (LNCaP-PSMA+ve) and PSMA-negative (LNCaP-PSMA-ve) cells
Assay: Cell viability with ROS-generating drug Elesclomol (Alamar Blue)
Assay type: cell-based, human
Settings: 2-PMPA 250 nM, 48 h; Elesclomol 250 nM; FIG. 8 C and D
Description: Cell viability of (A) PSMA-expressing (LNCaP-PSMA+ve) and (B) PSMA-negative cells (LNCaP-PSMA-ve where PSMA expression was knocked down with shRNA) was determined via the fluorescence-based Alamar Blue method (λex=565 nm and λem=585 nm). Cell viability was assessed 48 h after drug administration with either vehicle (DMSO) or the ROS-generating drug Elesclomol (250 nM, Selleck Chemicals). […] The cells were treated for 48 h, and cell viability was determined with the Alamar Blue method.

SMILES: O=C(O)CCC(CP(=O)(O)O)C(=O)O (stereo not shown) [2-PMPA]
- resistance to ROS-generating drug (cell viability): abrogates drug resistance and renders the cells susceptible to cell death
